From patent US20090221433A1, “SMALL MOLECULE PRINTING” (priority 2006, published 2009)

Experiments:
[1] = test system: anti-17β-estradiol antibody; test: Bioactive microarray binding profile, anti-17β-estradiol antibody; design: species or system rabbit; conditions: anti-17β-estradiol then labeled secondary antibody; replicate arrays
Experimental: (§1) To investigate the suitability of our approach for printing compounds that have not been intentionally synthesized with appendages for covalent capture, more than 300 commercially available bioactive compounds were printed onto isocyanate-functionalized slides. We screened these bioactive microarrays using rabbit primary antibodies against corticosterone, digitoxin, and 17β-estradiol, followed by a fluor-labeled goat anti-rabbit secondary antibody. The signal-to-noise ratio (SNR) was determined by calculating intensity at 635 nm and adjusting for local background for each feature on replicate arrays, and data were compared to replicate control arrays incubated with the labeled secondary antibody alone (FIG. 4). […] In the anti-corticosterone antibody binding profile, hydrocortisone (mean SNR 68.9), beclomethasone (63.3), and corticosterone (59.2), corticosteroids related in structure, scored as positives. […] 17β-estradiol (mean SNR 9.0), estriol (8.7) and estrone (7.3), primary estrogenic hormones varying in the number of reactive groups for capture, scored as positives in the anti-17β-estradiol binding profile.
(§2) Small-molecule microarray profiles with antibodies against natural products. […] Arrays were dried by centrifugation and scanned for fluorescence at 635 nm. Signal-to-noise ratio was calculated for each feature using adjusted diameters.

anti-digitoxin antibody = test: Bioactive microarray binding profile, anti-digitoxin antibody; design: species or system rabbit; conditions: anti-digitoxin then labeled secondary antibody; replicate arrays
Experimental: We screened these bioactive microarrays using rabbit primary antibodies against corticosterone, digitoxin, and 17β-estradiol, followed by a fluor-labeled goat anti-rabbit secondary antibody. The signal-to-noise ratio (SNR) was determined by calculating intensity at 635 nm and adjusting for local background for each feature on replicate arrays, and data were compared to replicate control arrays incubated with the labeled secondary antibody alone (FIG. 4).
Microarrays printed with natural products and bioactives were incubated with various antibodies to detect specific compounds. In the first incubation step, arrays were incubated with 300 μL of one of the following: PBST buffer (control), a 1:500 solution of rabbit anti-corticosterone whole antiserum in PBST, 1:500 solution of rabbit anti-17β-estradiol whole antiserum in PBST for 30 min at room temperature. The arrays were briefly rinsed with PBST and then washed twice in PBST. All arrays were then incubated with 300 μL of a 1:1000 solution of Alexa Fluor® 647 […] polyclonal secondary antibody in PBST for 30 min at room temperature. Probed arrays were rinsed in PBST, washed three times in PBST, and washed once in PBS. Arrays were dried by centrifugation and scanned for fluorescence at 635 nm. Signal-to-noise ratio was calculated for each feature using adjusted diameters.

[2] = test system: Alexa Fluor 647 goat-anti-rabbit IgG; test: Bioactive microarray control, labeled secondary antibody alone; format: binding; conditions: labeled polyclonal secondary antibody alone
Experimental: as §1, §2

[3] = test system: anti-corticosterone antibody; test: Bioactive microarray binding profile, anti-corticosterone antibody; conditions: anti-corticosterone then Alexa Fluor 647 goat-anti-rabbit; replicate arrays
Experimental: as §1, with “4). Six bioactives, with signal-to-noise ratios>3.0, were found in replicate arrays to bind to the labeled polyclonal secondary antibody alone. None of the compounds were autofluorescent at 635 nm as judged by arrays probed with PBS buffer alone (data not shown). Hygromycin B, an aminoglycoside antibiotic, gave the highest adjusted signal-to-noise ratio (mean SNR 47.6).” for “4).”
as §2, with “products. Microarrays printed with natural products and bioactives were incubated with various antibodies to detect specific compounds.” for “products.”

FKBP12-6xHis = molecular target: T1, FKBP12-6xHis (Homo sapiens, UniProt P62942); conditions: Table 1; cited from earlier work
T1 construct: made in house
T1 sequence (P62942 whole entry): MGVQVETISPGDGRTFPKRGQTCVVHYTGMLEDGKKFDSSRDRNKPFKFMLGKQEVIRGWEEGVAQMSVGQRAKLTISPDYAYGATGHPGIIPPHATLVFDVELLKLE

FKBP12 = FKBP12 (Homo sapiens, UniProt P62942); conditions: affinity of AP1497 for FKBP12; cited from earlier work
FKBP12, sequence (P62942 whole entry, species assumed): as the sequence (P62942 whole entry) above

Which “mean SNR (signal-to-noise ratio at 635 nm)” value [1] does the source give for `C[C@]12CC[C@@H]3c4ccc(O)cc4CC[C@H]3[C@@H]1CC[C@@H]2O` [17β-estradiol] here?
The value was 9.0.

For `C[C@]12CC[C@H](O)C[C@H]1CC[C@@H]1[C@@H]2CC[C@]2(C)[C@@H](C3=CC(=O)OC3)[C@@H](O)C[C@]12O` [Gitoxigenin], which “mean SNR (signal-to-noise ratio at 635 nm)” value (anti-digitoxin antibody) is on record?
The value was 62.5.

Which “adjusted signal-to-noise ratio (mean SNR)” value [2] does the source give for `CN[C@H]1C[C@@H](N)[C@H](O)[C@@H](O[C@@H]2O[C@H](CO)[C@H](O)[C@@H]3OC4(O[C@H]23)O[C@H]([C@@H](N)CO)[C@H](O)[C@H](O)[C@H]4O)[C@@H]1O` (stereo partly drawn) [Hygromycin B] here?
Its value is 47.6.

For `C[C@H]1C[C@H]2[C@@H]3CCC4=CC(=O)C=C[C@]4(C)[C@@]3(Cl)[C@@H](O)C[C@]2(C)[C@@]1(O)C(=O)CO` [beclomethasone], which “mean SNR (signal-to-noise ratio at 635 nm)” value [3] is on record?
The value was 63.3.

For `C[C@@H]1O[C@@H](O[C@H]2CC[C@]3(C=O)[C@H]4CC[C@]5(C)[C@@H](C6=CC(=O)OC6)CC[C@]5(O)[C@@H]4CC[C@]3(O)C2)[C@H](O)[C@H](O)[C@H]1O` [convallatoxin], which “mean SNR (signal-to-noise ratio at 635 nm)” value (anti-digitoxin antibody) is on record?
Its value is 52.7.

For `C[C@]12C[C@H](O)[C@H]3[C@@H](CCC4=CC(=O)CC[C@@]43C)[C@@H]1CC[C@@H]2C(=O)CO` [corticosterone], which “mean SNR (signal-to-noise ratio at 635 nm)” value [3] is on record?
Its value is 59.2.

Which “mean SNR (signal-to-noise ratio at 635 nm)” value (anti-digitoxin antibody) does the source give for `C[C@H]1O[C@@H](O[C@H]2[C@@H](O)C[C@H](O[C@H]3[C@@H](O)C[C@H](O[C@H]4CC[C@@]5(C)[C@H](CC[C@@H]6[C@@H]5CC[C@]5(C)[C@@H](C7=CC(=O)OC7)CC[C@]65O)C4)O[C@@H]3C)O[C@@H]2C)C[C@H](O)[C@@H]1O` [digitoxin] here?
The value was 15.1.

With `C[C@]12CC[C@@H]3c4ccc(O)cc4CC[C@H]3[C@@H]1C[C@@H](O)[C@@H]2O` [estriol] as the compound, how does the “mean SNR (signal-to-noise ratio at 635 nm)” value [1] read?
Its value is 8.7.

Which “mean SNR (signal-to-noise ratio at 635 nm)” value [3] does the source give for `C[C@]12CCC(=O)C=C1CC[C@@H]1[C@@H]2[C@@H](O)C[C@@]2(C)[C@H]1CC[C@]2(O)C(=O)CO` [hydrocortisone] here?
Its value is 68.9.

With `CC(=O)O[C@H]1C[C@H](O[C@H]2[C@@H](O)C[C@H](O[C@H]3[C@@H](O)C[C@H](O[C@H]4CC[C@@]5(C)[C@H](CC[C@@H]6[C@@H]5C[C@@H](O)[C@]5(C)[C@@H](C7=CC(=O)OC7)CC[C@]65O)C4)O[C@@H]3C)O[C@@H]2C)O[C@H](C)[C@H]1O[C@@H]1O[C@H](CO)[C@@H](O)[C@H](O)[C@H]1O` [lanatoside C] as the compound, how does the “mean SNR (signal-to-noise ratio at 635 nm)” value (anti-digitoxin antibody) read?
The value was 24.0.

For AP1497, which Kd (FKBP12-6xHis) is on record?
The Kd was 18 nM.

And the Kd (FKBP12)?
The Kd was 8.8 nM.
